Experiment [1] deals with T1, EcGNPDA (glucosamine-6-phosphate deaminase from Escherichia coli) (Escherichia coli, UniProt P0A759).
T1 construct: gene nagB; full-length homohexamer; plasmid pTZ18RnagB in E. coli IBPC590 Δnag (stated for the mutant); encapsulated in silica sol-gel in T quaternary conformation (mutant F also in solution)
Description: near-UV circular dichroism of enzyme-doped gels, […] nm. As to conditions: allosteric activator, 1 mM; ligand-free R-state gel; 100 mM Tris-HCl pH 7.7, 30°C. The format is binding. In general terms: Circular dichroism is the unequal absorption of left and right circularly polarised light.

In experiment [2] the target is T2, EcGNPDA (glucosamine-6-phosphate deaminase from Escherichia coli) (Escherichia coli, UniProt P0A759, C118S/D165C/S206W/C228S/C239S).
T2 construct: gene nagB; full-length homohexamer; plasmid pTZ18RnagB in E. coli IBPC590 Δnag (stated for the mutant); encapsulated in silica sol-gel in T quaternary conformation (mutant F also in solution)
Description: initial velocity fitted to MWC equation. The following applies: mutant F, soluble enzyme; MWC R-state substrate dissociation constant (stronger state) from velocity data; cooperative; read-out: K R ^a. The format is biochemical. An excerpt:
initial velocity fitted to MWC equation on […] (glucosamine-6-phosphate deaminase from Escherichia coli)

Consider `CC(=O)N[C@H]1C(O)O[C@H](COP(=O)(O)O)[C@@H](O)[C@@H]1O` (some centres unmarked) [GlcNAc6P], for which, in experiment [1], the “near-UV circular dichroism of enzyme-doped gels, 274 nm” value is “Only the enzyme in the R state when in presence of the activator, displays”. As for `N[C@H]1C(O)O[C@H](COP(=O)(O)O)[C@@H](O)[C@@H]1O` (some centres unmarked) [GlcN6P], the Kd in experiment [2] was determined as 440 ± 10 µM.

Source of the values: PMC4008608, “The Tertiary Origin of the Allosteric Activation of E. coli Glucosamine-6-Phosphate Deaminase Studied by Sol-Gel Nanoencapsulation of Its T Conformer” (PLoS ONE, 2014).
